Assay type in all cases: cell-based, human
One test concerns FBXL2. The experiment in a line: Live-cell imaging of GFP-tagged FBXL2 localization in HeLa cells. The settings on record: HeLa cells transfected with GFP-tagged FBXL2; GGTi-2418 15 μM for 16 h. Here is the method: FIGS. 6A, 6B, 6C, 6D, 6E, 6F, 6G, and 6H that the degradation of IP3R3 is dependent on FBXL2 localization to cell membranes and on the segregase activity of p97. […] Live cell imaging was carried out with an LSM510 confocal microscope using a 63× objective. Scale bars, 10 μm. […] Cells were subsequently harvested at the indicated times for immunoblotting. […] Cells were subsequently harvested for immunoblotting. This experiment was performed once. […] The bracket on the right marks a ladder of bands which, presumably, are ubiquitinated species of IP3R3 that are not degraded when p97 is inhibited. […] Cells were subsequently stimulated with medium containing serum and harvested at the indicated time points for immunoblotting. […] Error bars indicate s.e.m. […] Thus, we propose that, after its FBXL2-mediated ubiquitination, IP3R3 is extracted from cell membranes by the segregase activity of p97 to be degraded by the proteasome. […] 24 h post-transfection, cells were treated with MG132 for 3 h before harvesting for immunoprecipitation and immunoblotting as indicated. This experiment was performed twice. […] After immunopurification with an anti-Flag resin, in vitro ubiquitination of IP3R3 was performed in the presence of UAE1, Ubch3, Ubch5 and ubiquitin (Ub). […] Samples were analysed by immunoblotting with the indicated antibodies. […]

The subject of test [1] is IP3R3. Put plainly: IP3R3 stability by immunoblotting in NHFs, HeLa and HEK293T cells incubated with GGTi-2418. To be noted: HeLa, HEK293T cells, 10-15 μM GGTi-2418, NHFs 30 h then cycloheximide and ATP. Here is the method:
FIGS. 6A, 6B, 6C, 6D, 6E, 6F, 6G, and 6H that the degradation of IP3R3 is dependent on FBXL2 localization to cell membranes and on the segregase activity of p97. […] Live cell imaging was carried out with an LSM510 confocal microscope using a 63× objective. Scale bars, 10 μm. […] Cells were subsequently harvested at the indicated times for immunoblotting. […] Cells were subsequently harvested for immunoblotting. This experiment was performed once. […] The bracket on the right marks a ladder of bands which, presumably, are ubiquitinated species of IP3R3 that are not degraded when p97 is inhibited. […] Cells were subsequently stimulated with medium containing serum and harvested at the indicated time points for immunoblotting. […] Error bars indicate s.e.m. […] Thus, we propose that, after its FBXL2-mediated ubiquitination, IP3R3 is extracted from cell membranes by the segregase activity of p97 to be degraded by the proteasome. […] 24 h post-transfection, cells were treated with MG132 for 3 h before harvesting for immunoprecipitation and immunoblotting as indicated. This experiment was performed twice. […] Samples were analysed by immunoblotting with the indicated antibodies. […]
Cell culture and transfections. […] All cells grown in culture were periodically monitored for mycoplasma contamination. […]

Test [2] concerns IP3R3. Put plainly: Serum-mediated degradation of IP3R3 in serum-starved, serum re-stimulated NHFs (immunoblotting). The settings on record: NHFs serum-starved 72 h, re-stimulated with serum; 10 μM MG132, 10 μM Eer1. The method, then:
24 h post-transfection, cells were treated with MG132 for 3 h before harvesting for immunoprecipitation and immunoblotting as indicated. WCL, whole-cell lysate from untransfected cells. […] After harvesting, cells were lysed, and cell membranes (CM) were isolated and immunoprecipitated with either a normal mouse IgG or an anti-Flag antibody. Subsequently, immunoprecipitates were analysed by immunoblotting as indicated. The results of these experiments (n=2) indicate that FBXL2 is incorporated into a complete SCF ligase that binds its substrate(s) at cellular membranes. […] After harvesting, cells were lysed and cytoplasmic (CYTO) and cell membrane (CM) fractions were isolated and analysed by immunoblotting as indicated. Actin and calnexin are used as markers for cytoplasmic and cell membrane fractions, respectively. This experiment was performed twice. […] 24 h post-transfection, where indicated, cells were treated with MG132 for 3 h before harvesting for immunoprecipitation and immunoblotting. Ned. CUL1, neddylated CUL1. […] The experiment was performed in the presence or absence of MG132 as indicated. Whole-cell lysates were immunoblotted as indicated. The asterisk indicates a non-specific band. This experiment was performed twice. […] P values were calculated by unpaired t-test. Error bars indicate s.e.m. […] Error bars indicate s.e.m. The values represent the ratios between FBXL2 and GAPDH mRNAs. […] Cells were subsequently stimulated with medium containing serum and harvested at the indicated times for immunoblotting. […] Error bars indicate s.e.m. […] Cells were subsequently stimulated with medium containing serum and harvested at the indicated time points for immunoblotting. […] Error bars indicate s.e.m. […] Exon 2 and exon 3 refer to the human FBXL2 gene in NC_000003.12 (GRCh38.p7 (Gene Bank ID: 3129728)). […]
FIGS. 6A, 6B, 6C, 6D, 6E, 6F, 6G, and 6H that the degradation of IP3R3 is dependent on FBXL2 localization to cell membranes and on the segregase activity of p97. […] Samples were analysed by immunoblotting with the indicated antibodies. […]

Data on two molecules can be found in patent publication US11583525B2, “Geranylgeranyltransferase I inhibitor for treatment of a PTEN defective cancer” (H. LEE MOFFITT CANCER CENTER AND RESEARCH INSTITUTE, INC., priority 2017, dated 2023).

Entries after “also recorded” stand apart in the source; their conditions may differ. Peptide text beside a SMILES is read from it. * marks the point of attachment. Cbz = O=C(OCc1ccccc1)*

`Cc1nc[nH]c1CN1CCN(C(=O)N[C@@H](CC(C)C)C(=O)O)[C@@H](Cc2ccccc2)C1=O` [GGTi-2418]: the FBXL2 localization result in the test on FBXL2 is “delocalized FBXL2; also recorded: delocalizes FBXL2 from membranes”. For the same molecule, in the test with IP3R3 [1], the IP3R3 stability entry was “stabilizes IP3R3”.

For `CC(C)C[C@@H](C=O)NC(=O)[C@H](CC(C)C)NC(=O)[C@H](CC(C)C)NC(=O)OCc1ccccc1` [MG132] (Cbz-Leu-Leu-Leu-aldehyde), in the test with IP3R3 [2], the “IP3R3 levels / degradation after serum re-stimulation” value is “much less”.
